Results taken from PMC10644342, “Improved Antibacterial Activity of 1,3,4-Oxadiazole-Based Compounds That Restrict Staphylococcus aureus Growth Independent of LtaS Function” (ACS Infectious Diseases, 2023).
Values after ≈ are worked out from the molar mass of the structure shown.

What was measured:
[1] = test system: S. epidermidis strain RP62A; assay: Biofilm prevention, crystal violet assay; format: cell-based, Staphylococcus epidermidis; settings: for concentration causing a 50% reduction in biofilm formation: 24 h
Experimental: (§1) An indication of the biofilm prevention capabilities of 1771 and its derivatives 9–14 was achieved through the application of the crystal violet assay. S. aureus strain SH1000 and S. epidermidis strain RP62A were used, as they are strong biofilm formers. Overnight cultures were diluted 1:200 in fresh TSB containing 0.5% glucose (TSB-G), and 100 μL was added to individual wells in a 96-well microtiter plate. One hundred microliters of 1771 and 9–14 were diluted in TSB-G and added to bacteria at a final concentration ranging from 256 to 0.25 μg/mL with subsequent incubation for 24 h at 37 °C in a static incubator. Following incubation, biofilms were washed four times with ddH2O before being stained with 150 μL of 0.1% crystal violet for 30 min at room temperature. Following a further four washes in ddH2O, wells were resuspended in 200 μL of 7% acetic acid. The absorbance intensity of the crystal violet was measured at abs595nm in a Sunrise plate reader. Biomass formed was measured as a percentage of the no-compound control.

S. aureus = assay: Checkerboard MIC analysis with antistaphylococcal antibiotics (FIC index); format: cell-based; settings: lowest possible value
Experimental: Antibiotic combination 1771 Compound 13
Figure S1. Checkerboard analysis of 1771 and compound 13 in combination with clinically relevant antibiotics. Checkerboard analysis was repeated twice for each antibiotic combination, and the mean bacterial growth (OD 600nm) plotted as a heat map with 1771/compound 13 concentration of the y-axis and test antibiotic concentration on the x axis.
FIC indexes were calculated for each combination and the lowest possible value presented. […]
Supplementary Materials and Methods
Synergistic activity with clinically relevant antibiotics
The synergistic ability of 1771 and 13 was achieved using the chequerboard micro-broth dilution method. Antibiotic partners tested included: oxacillin, daptomycin, vancomycin, gentamicin, and linezolid with starting concentrations of 256 µg/ml, 8 µg/ml, 8 µg/ml, 4 µg/ml, and 8 µg/ml respectively. Overnight cultures were sub-cultured 1:200 in fresh MHB and grown to optical density of OD600nm of 0.5-0.6 and prepared according to the MIC analysis. Following an 18 h incubation at 37 °C the sum of the fractional inhibitory […]
using the equation ΣFIC = FICA +FICB = (MICA in combination with B/MICA) + (MICB in combination with A/MICB). The resulting value was interpreted according to the following rules: synergistic (FIC ≤ 0.5), additive (FIC >0.5, <1) or indifferent (FIC ≥ 1 <4). […]

B. subtilis (W168) = assay: MIC, broth microdilution (CLSI); format: cell-based; settings: Bacillus subtilis
Experimental: (§2) B. subtilis, staphylococcal, and enterococcal strains were grown in Mueller Hinton broth (MHB), while streptococcal strains were grown in MHB supplemented with 5% laked horse blood. All strains were grown for 18 h at 37 °C. The overnight cultures were subsequently subcultured 1:200 and grown to the exponential phase (OD600nm = 0.5–0.6) in fresh broth. 1771 and its derivatives 9–14 were reconstituted in DMSO and further diluted by performing a 1:2 serial dilution ranging between 256 and 0.125 μg/mL in a 96-well microtiter plate. One hundred microliters of 0.5 McFarland standardized inoculum (approximately equal to 5 × 10^5 cfu) were then dispensed into each well in the 96-well microtiter plate. The plate was incubated for 18 h at 37 °C.

erythrocytes = assay: Erythrocyte toxicity (hemolysis) assay; format: cell-based, human; settings: concentrations as high as 256 μg/mL, 1 h, 37 °C
Experimental: Consent was collected from three healthy volunteers prior to blood collection and in accordance with the recommendations of the University of Bath, Research Ethics Approval Committee for Health Blood (EP 18/19108). Blood was collected by venepuncture and drawn directly into K2-EDTA-coated Vacutainer tubes (BD Biosciences) to prevent coagulation. The blood was then pelleted at 500g for 10 min at 4 °C, and the plasma layer was removed. The remaining hematocrit was resuspended to the original volume in a sterile saline solution. This procedure was repeated three times and finally resuspended in sterile PBS and diluted to 2% (v/v). One hundred microlitres of the resulting blood suspension were aliquoted in a 96-well microtire plate. An equal volume of either 1771 or 13 (diluted in PBS) was then added at a concentration range of 256–2 μg/mL and incubated for 1 h at 37 °C. Blood incubated with PBS served as a negative control, and total hemolysis (positive control) was provided by incubating the cells in 2% (v/v) Triton X-100. Following incubation, the 96-well microtire plate was pelleted at 500g for 5 min, and 100 μL of supernatant was transferred into a new plate. Absorbance at abs404nm was measured using a Sunrise plate reader, and percentage hemolysis was calculated according to controls.

[2] = test system: S. aureus wild type, clpX, ltaS, tarO mutants and ltaS overexpression strains; assay: MIC against LtaS deletion and overexpression strains; format: cell-based, Staphylococcus aureus
Experimental: S. aureus, S. epidermidis, E. faecalis, and E. faecium strains were routinely cultivated on tryptic soy agar (TSA) and grown for 18 h at 37 °C. S. aureus single colonies were subsequently transferred into 2 mL of tryptic soy broth (TSB) and grown for a further 18 h at 37 °C while being shaken at 180 rpm. S. pyogenes, S. agalactiae, and S. dysgalactiae strains were routinely cultured on TSA supplemented with 5% sheep blood and grown for 18 h at 37 °C with 5% CO2. E. coli was grown in LB broth at 37 °C. For LtaS-deficient strains, TSB was supplemented with 0.5 M NaCl to provide an osmotically balanced environment and instead grown at 30 °C. For strains harboring the pRMC2 tetracycline inducible vector,[61] the growth medium was supplemented with 10 μg/mL chloramphenicol and […] anhydrotetracycline hydrochloride (Sigma). Phenylalanine-arginine β-naphthylamide (PAβN) (Sigma) was dissolved in sterile water.
as §2
For overexpression studies, full-length ltaS was amplified by PCR using MRSA strian LAC genomic DNA, primer pair LtaS-FW: 5′-[…]-3′ and LtaS-RV: 5′-[…]-3′, and Phusion High-Fidelity DNA Polymerase (Thermo Fisher). The resulting PCR product was cloned into the tetracycline inducible plasmid pRMC2 using SacI and KpnI restriction sites and T4 ligase (NEB). The cloned vector was subsequently transformed into RN4220 followed by LAC through electroporation.

S. aureus strain SH1000 = assay: Biofilm prevention, crystal violet assay; format: cell-based, Staphylococcus aureus; settings: for concentration causing a 50% reduction in biofilm formation: SH1000, 24 h
Experimental: as §1

[3] = Staphylococcus aureus, 8325-4 (wild type), clpX set
[4] = Staphylococcus aureus, NEWMAN, Newman ΔtarO
[5] = Staphylococcus aureus, NEWMAN, Newman ΔtarO pRMC2 (empty vector)
[6] = Staphylococcus aureus, NEWMAN, Newman ΔtarO pltaS (ltaS overexpression)
[7] = Staphylococcus aureus, SA564 (wild type)
[8] = Staphylococcus aureus, SA564 clpX knockout mutant

SMILES | concentration causing a 50% reduction in biofilm formation [1] | FIC index (S. aureus; combination with daptomycin) | FIC index (S. aureus; combination with gentamicin) | FIC index (S. aureus; combination with linezolid) | FIC index (S. aureus; combination with oxacillin) | FIC index (S. aureus; combination with vancomycin) | MIC (B. subtilis (W168)) | erythrocyte lysis (erythrocytes) | MIC [2, 3] | MIC ([2]; Staphylococcus aureus, NEWMAN) | MIC [2, 4] | MIC [2, 5] | MIC [2, 6] | MIC [2, 7] | MIC [2, 8] | concentration causing a 50% reduction in biofilm formation (S. aureus strain SH1000) | other results
O=C(COC(=O)Cc1coc2ccc3ccccc3c12)Nc1nnc(-c2ccc(S(F)(F)(F)(F)F)cc2)o1 [Compound 13, 2-Oxo-2-((5-(4-(pentafluoro-l6-sulfaneyl)phenyl)-1,3,4-oxadiazol-2-yl)amino)ethyl 2-(Naphtho[2,1-b]furan-1-yl)acetate] | 0.25 µg/mL | 0.75 | 0.75 | 0.515 | 0.75 | 1 | 0.5 to 1 µg/mL (≈ 0.903 to 1.81 µM) | neither caused any lysis | 0.5 to 1 µg/mL (≈ 0.903 to 1.81 µM) | 1 µg/mL (≈ 1.81 µM) | 1 µg/mL (≈ 1.81 µM) | 1 µg/mL (≈ 1.81 µM) | 1 µg/mL (≈ 1.81 µM) | 0.25 µg/mL (≈ 0.452 µM) | 0.25 µg/mL (≈ 0.452 µM) | 0.25 µg/mL | biofilm prevention compared with 1771 [1]: better than 1771; MIC ([2]; 8325-4 (wild type), clpX set): 0.5 to 1 µg/mL; MIC ([2]; SA564clpX knockout and ltaSH476Q mutant): 0.25 µg/mL (≈ 0.452 µM); MIC ([2]; Staphylococcus aureus, 8325-4 clpX knockout and ltaS382STOP mutant): 0.25 µg/mL (≈ 0.452 µM); MIC ([2]; Staphylococcus aureus, 8325-4 clpX knockout mutant): 0.25 µg/mL (≈ 0.452 µM); MIC ([2]; Staphylococcus aureus, JE2 clpXI265E mutant): 0.25 µg/mL (≈ 0.452 µM); biofilm prevention compared with 1771 (S. aureus strain SH1000; SH1000): better than 1771
O=C(COC(=O)Cc1coc2ccc3ccccc3c12)Nc1nnc(-c2ccccc2)o1 [Compound 1771, 2-Oxo-2-((5-phenyl-1,3,4-oxadiazol-2-yl)amino)ethyl 2-(Naphtho[2,1-b]furan-1-yl)acetate, reference compound] | 8 µg/mL | 0.625 | 0.375 | 1 | 0.75 | 1 | 4 to 8 µg/mL (≈ 9.36 to 18.7 µM) | neither caused any lysis | 16 µg/mL (≈ 37.4 µM) | 16 µg/mL (≈ 37.4 µM) | 16 µg/mL (≈ 37.4 µM) | 16 µg/mL (≈ 37.4 µM) | 16 µg/mL (≈ 37.4 µM) | 16 µg/mL (≈ 37.4 µM) | 16 µg/mL (≈ 37.4 µM) | 4 µg/mL | MIC ([2]; Staphylococcus aureus, JE2 (wild type)): 16 µg/mL (≈ 37.4 µM); MIC ([2]; Staphylococcus aureus, JE2 clpXI265E and ltaS339STOP mutant): 16 µg/mL (≈ 37.4 µM); MIC ([2]; Staphylococcus aureus, SA564clpX knockout and ltaSH476Q mutant): 16 µg/mL (≈ 37.4 µM)
